Assay results as given in patent EP4620956A1, “PARP1 INHIBITORS” (Zhejiang Yangli Pharmaceutical Technology Co., Ltd., priority 2022, dated 2024).

Columns and labels:
cleaved caspase-3 = experiment: Cleaved caspase-3 in MDA-MB-436 xenograft tumour tissues (immunoblotting); type: in vivo, mice; conditions: 10 days of treatment, 0.25 hours and 24 hours after the last administration, FIG. 5 and 6
Procedure: The pro-apoptotic effect of the compounds was further verified in vivo. The changes of cleaved caspase-3 in subcutaneous xenograft tumour tissues of MDA-MB-436 mice were detected by immunoblotting. After 10 days of treatment with different compounds, the animals were euthanized 0.25 hours and 24 hours after the last administration, and the tumour tissues were obtained for analysis. The rapidly frozen tumour tissues were placed on dry ice, 350 µL of complete cell lysis buffer (containing 1% protease inhibitors and phosphatase inhibitors) was added, the tissues were disrupted using Tissue grinder for 5 minutes, and the tissue lysate was placed on ice for 30 minutes. Centrifugation was performed at 12,000 rpm and 4°C for 10 minutes, the supernatant was placed in a new 1.5 mL centrifuge tube, and protein quantification was carried out using a BCA quantification kit. According to the quantitative results, the sample protein concentration was uniformly adjusted to 2 µg/µL, LDS loading buffer (4X) and sample reducing agent (10X) were added, and the samples were heated at a constant temperature of 100°C for 10 minutes. For Western blotting, 10 µL of sample was loaded into each well of an SDS-PAGE gel, and electrophoresis was performed at 80 V for 30 minutes, followed by 120 V for 90 minutes. […] The membrane was then cut according to the molecular weights of the proteins to be detected. […]

PARP2 = target: T1, PARP2 (Homo sapiens, UniProt Q9UGN5); experiment: PARP2-DNA trapping, fluorescence polarization (FP); type: biochemical
T1 construct: purchased BPS 80502

DLD-1 BRCA2^-/- cells = experiment: Apoptosis in BRCA2-deficient DLD-1 cells (Annexin V/PI flow cytometry); type: cell-based, human; conditions: 7 days, different concentrations, three experiments, FIG. 4
Procedure: The mechanism of the anti-proliferative effect of the compounds on BRCA-mutated tumours was analysed, and the impact of the compounds on apoptosis in the BRCA2-mutated cell line was analysed by flow cytometry. BRCA2-deficient human colon cancer DLD-1 cells ([…]) were adherently cultured, with the culture conditions of RPMI1640 medium supplemented with 1% foetal bovine serum and 100 µg/mL hygromycin B. Once entering the logarithmic growth phase, the cells were collected and placed in a 6-well plate with 600,000 cells per well. The cells were allowed to adhere to the plate in a 37°C/5% CO2 incubator overnight. Different concentrations of compounds were added to each well and incubated in the incubator. After 7 days, the cells were collected and placed in a 96-well plate. 195 µL of Annexin V-FITC binding buffer was added to each well to resuspend the cells. Then 5 µL of Annexin V-FITC (beyotime, C1052) was added and gently mixed. […] The data acquired from the flow cytometer were analysed using FlowJo software.
For apoptosis analysis, the apoptosis samples were dragged into FlowJo, the raw data were double-clicked to open the graph window, and FSC-A was selected for the X-axis and SSC-A for the Y-axis. […] The "analysed cell population" was double-clicked in the SSC/FSC plot. […]

T1 sequence (Q9UGN5 whole entry): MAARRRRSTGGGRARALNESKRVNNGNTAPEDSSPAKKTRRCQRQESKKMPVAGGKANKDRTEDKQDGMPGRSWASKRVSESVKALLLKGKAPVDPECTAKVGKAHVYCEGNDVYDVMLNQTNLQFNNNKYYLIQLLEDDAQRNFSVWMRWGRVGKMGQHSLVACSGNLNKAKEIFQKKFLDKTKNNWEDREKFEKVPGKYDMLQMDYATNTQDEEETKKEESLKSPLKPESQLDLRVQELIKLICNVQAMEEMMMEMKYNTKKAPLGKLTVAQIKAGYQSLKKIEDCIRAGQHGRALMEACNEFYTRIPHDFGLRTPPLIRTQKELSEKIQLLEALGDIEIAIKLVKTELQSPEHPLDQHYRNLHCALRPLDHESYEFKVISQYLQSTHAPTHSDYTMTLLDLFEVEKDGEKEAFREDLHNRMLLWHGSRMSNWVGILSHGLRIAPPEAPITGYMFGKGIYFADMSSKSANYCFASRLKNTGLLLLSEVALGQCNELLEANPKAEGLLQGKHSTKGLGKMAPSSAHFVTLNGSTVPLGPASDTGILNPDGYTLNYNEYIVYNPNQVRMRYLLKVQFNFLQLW

Q: Which results are given for `[2H]C([2H])([2H])NC(=O)c1ccc(N2CCN(Cc3cnc4c(N)c(CC)c(=O)[nH]c4c3)CC2)c(F)n1` [Example 4, 5-(4-((8-Amino-7-ethyl-6-oxo-5,6-dihydro-1,5-naphthyridin-3-yl)methyl)piperazin-1-yl)-6-fluoro-N-(methyl-d3)picolinamide]?
A: cleaved caspase-3 in tumour tissues (cleaved caspase-3): induced an increase in cleaved caspase-3; Bottom (PARP2; PARP2, 0.25 hour): 4.3; EC50 (PARP2; PARP2, 0.25 hour): 2.33 µM; Hillslope (PARP2; PARP2, 0.25 hour): 1.4; Top (PARP2; PARP2, 0.25 hour): = 100.0; Bottom (PARP2; PARP2, 0.5 hour): 1.0; EC50 (PARP2; PARP2, 0.5 hour): 5.47 µM; Hillslope (PARP2; PARP2, 0.5 hour): 1.9; Top (PARP2; PARP2, 0.5 hour): = 100.0; Bottom (PARP2; PARP2, 1 hour): 0.8; EC50 (PARP2; PARP2, 1 hour): > 10 µM; Hillslope (PARP2; PARP2, 1 hour): 2.1; Top (PARP2; PARP2, 1 hour): = 100.0; EC50 (PARP2; PARP2, 2 hour): > 10 µM; EC50 (PARP2; PARP2, 4 hour): > 10 µM; EC50 (PARP2; PARP2, 8 hour): > 10 µM; EC50 (PARP2; PARP2, 24 hour): > 10 µM; EC50 (PARP2; PARP2, 48 hour): > 10 µM; proportion of apoptotic cells (DLD-1 BRCA2^-/- cells): higher proportion of apoptotic cells at different concentrations than the reference compound AZD5305
